Results on 20 compounds are retold here after patent publication US9296741B2, “Bromodomain inhibitors” (priority 2012, dated 2016).

Where only a bound is given, the exact number is not on record here.

Series [1] deals with breast cancer cell line MX-1. Nature of the series: MX-1 cell line proliferation assay. The following applies: Homo sapiens, MX1, 72 h; MX-1 cells, 3-day proliferation, Cell Titer Glo; read-out: Cellular proliferation: EC50. It counts as cell-based, human.
Series [2] can be described thus: Human liver microsome stability assay. To be noted: both sexes, human, microsomes, pH 7.4. It counts as in vitro ADME.
For series [3], the target named is human BRD4 first bromodomain (BDI_K57-E168) (Homo sapiens (Human), UniProt O60885). Nature of the series: TR-FRET bromodomain binding assay, BRD4 first bromodomain.
The target in series [4] is human BRD4 second bromodomain (BDII_E352-M457) (Homo sapiens (Human), UniProt O60885). Briefly: TR-FRET bromodomain binding assay, BRD4 second bromodomain.
Series [5] is described as follows: Mouse liver microsome stability assay. It counts as in vitro ADME. The following applies: male, CD1, mouse, microsomes, pH 7.4.
Series [6] is described as follows: Rat liver microsome stability assay. To be noted: rat liver microsomes (male Sprague-Dawley), 0.5 μM test compound, pH 7.4, 37° C.; for half-life at 0.5 μM: 0.25 mg/mL microsomal protein, read-out: Stability in rat liver microsomes (t1/2 in minutes). It counts as in vitro ADME.

Turning to `Cn1cc(-c2cc(S(N)(=O)=O)cnc2Nc2ccccc2)c2cc[nH]c2c1=O` [Example 111, 5-(6-methyl-7-oxo-6,7-dihydro-1H-pyrrolo[2,3-c]pyridin-4-yl)-6-(phenylamino)pyridine-3-sulfonamide], the EC50 in series [1] was 0.199 µM. Also, the half-life at 0.5 μM in series [2] was over 120 min; in series [5], 63 min; in series [6], 42 min. Besides, the inhibition constant (Ki) stood at 0.0087 µM in series [3] and 0.0103 µM in series [4].
For the compound `Cn1cc(-c2cc(NS(=O)(=O)CCF)ccc2Oc2ccc(F)cc2F)c2cc[nH]c2c1=O` [Example 64, N-[4-(2,4-difluorophenoxy)-3-(6-methyl-7-oxo-6,7-dihydro-1H-pyrrolo[2,3-c]pyridin-4-yl)phenyl]-2-fluoroethanesulfonamide], the EC50 in series [1] is 0.773 µM. The inhibition constant Ki in series [3] stood at 0.0531 µM; in series [4], 0.0633 µM. The half-life at 0.5 μM in series [5] was 4 min; in series [6], 3 min.
Turning to `Cn1cc(-c2cc(NS(=O)(=O)CC(F)(F)F)ccc2OC2CCCOC2)c2cc[nH]c2c1=O` (centres unmarked) [Example 107, 2,2,2-trifluoro-N-[3-(6-methyl-7-oxo-6,7-dihydro-1H-pyrrolo[2,3-c]pyridin-4-yl)-4-(tetrahydro-2H-pyran-3-yloxy)phenyl]ethanesulfonamide], the EC50 in series [1] was 0.031 µM. Besides, the half-life at 0.5 μM turned out to be 71 min in series [2], 8 min in series [5] and 16 min in series [6].
The matching figures for `CCOC(=O)c1cc2c(-c3cc(N)ccc3Oc3ccccc3)nn(C)c(=O)c2[nH]1` [Example 74, ethyl 4-(5-amino-2-phenoxyphenyl)-6-methyl-7-oxo-6,7-dihydro-1H-pyrrolo[2,3-d]pyridazine-2-carboxylate]: 0.275 µM, 17 min, 5 min and 3 min.
For `CCS(=O)(=O)c1ccc(N2CCN(C)CC2)c(-c2cn(C)c(=O)c3[nH]ccc23)c1` [Example 331, 4-[5-(ethylsulfonyl)-2-(4-methylpiperazin-1-yl)phenyl]-6-methyl-1,6-dihydro-7H-pyrrolo[2,3-c]pyridin-7-one], in that order: 0.481 µM, over 120 min, over 120 min and over 120 min.
For `Cn1cc(-c2ccccc2CN2CCOCC2)c2cc[nH]c2c1=O` [Example 12, 6-methyl-4-[2-(morpholin-4-ylmethyl)phenyl]-1,6-dihydro-7H-pyrrolo[2,3-c]pyridin-7-one], in that order: over 3 µM, 51 min, 33 min and 10 min.
As for `CCOC(=O)c1ccc(NC2CCCC2)c(-c2cn(C)c(=O)c3[nH]ccc23)c1` [Example 40, ethyl 4-(cyclopentylamino)-3-(6-methyl-7-oxo-6,7-dihydro-1H-pyrrolo[2,3-c]pyridin-4-yl)benzoate], the EC50 in series [1] is 0.167 µM. In addition, the half-life at 0.5 μM in series [2] is 13.1 min; in series [5], 6 min. The “Stability in rat liver microsomes (t1/2 in minutes)” value in series [6] ([…] microsomal protein) amounted to 1 min.
For the compound `CC1CC1COc1ccc(S(C)(=O)=O)cc1-c1cn(C)c(=O)c2[nH]ccc12` (centres unmarked) [Example 223, 6-methyl-4-{2-[(2-methylcyclopropyl)methoxy]-5-(methylsulfonyl)phenyl}-1,6-dihydro-7H-pyrrolo[2,3-c]pyridin-7-one], the EC50 in series [1] was 0.0133 µM. Further, the results for the half-life at 0.5 μM in series [2], in series [5] and in series [6] were 54 min, 48 min and 24 min, respectively.
The matching figures for `CCCS(=O)(=O)Nc1ccc(OC2CCOC2)c(-c2cn(C)c(=O)c3[nH]ccc23)c1` (centres unmarked) [Example 92, N-[3-(6-methyl-7-oxo-6,7-dihydro-1H-pyrrolo[2,3-c]pyridin-4-yl)-4-(tetrahydrofuran-3-yloxy)phenyl]propane-1-sulfonamide]: 0.084 µM, 97 min, 11 min and 20 min.
The matching figures for `CNS(=O)(=O)c1cnc(Nc2ccccc2)c(-c2cn(C)c(=O)c3[nH]ccc23)c1` [Example 112, N-methyl-5-(6-methyl-7-oxo-6,7-dihydro-1H-pyrrolo[2,3-c]pyridin-4-yl)-6-(phenylamino)pyridine-3-sulfonamide]: 0.24 µM, 49 min, 51 min and 28 min.
The matching figures for `Cn1cc(-c2cc(NS(=O)(=O)CC(F)(F)F)ccc2OC2CCC(F)(F)CC2)c2cc[nH]c2c1=O` [Example 103, N-{4-[(4,4-difluorocyclohexyl)oxy]-3-(6-methyl-7-oxo-6,7-dihydro-1H-pyrrolo[2,3-c]pyridin-4-yl)phenyl}-2,2,2-trifluoroethanesulfonamide]: 0.0338 µM, 47 min, 37 min and 16 min.
Regarding `CCCS(=O)(=O)Nc1ccc(OC2CCCOC2)c(-c2cn(C)c(=O)c3[nH]ccc23)c1` (centres unmarked) [Example 106, N-[3-(6-methyl-7-oxo-6,7-dihydro-1H-pyrrolo[2,3-c]pyridin-4-yl)-4-(tetrahydro-2H-pyran-3-yloxy)phenyl]propane-1-sulfonamide], the EC50 in series [1] is 0.0468 µM. The half-life at 0.5 μM worked out at 39 min in series [2], 4 min in series [5] and 8 min in series [6].
On to `Cn1cc(-c2cc(-c3cccc(F)c3)ccc2OCC2CC2)c2cc[nH]c2c1=O` [Example 334, 4-[4-(cyclopropylmethoxy)-3′-fluorobiphenyl-3-yl]-6-methyl-1,6-dihydro-7H-pyrrolo[2,3-c]pyridin-7-one], for which the EC50 in series [1] amounted to 0.515 µM. For the same compound, the half-life at 0.5 μM was found to be 34 min in series [2] and 21 min in series [5]. The inhibition constant (Ki) in series [3] came to 0.661 µM; in series [4], 1.17 µM.
Consider `CN(C)c1cccc(Oc2ccc(S(C)(=O)=O)cc2-c2cn(C)c(=O)c3[nH]ccc23)c1` [Example 180, 4-{2-[3-(dimethylamino)phenoxy]-5-(methylsulfonyl)phenyl}-6-methyl-1,6-dihydro-7H-pyrrolo[2,3-c]pyridin-7-one], for which, in series [1], the EC50 came to 0.115 µM. Also, the half-life at 0.5 μM came out at 12 min in series [2], 5 min in series [5] and 7 min in series [6].
Consider `CCN(C)C(=O)c1cc2c(-c3cc(NS(C)(=O)=O)ccc3Oc3ccccc3)nn(C)c(=O)c2[nH]1` [Example 83, N-ethyl-N,6-dimethyl-4-{5-[(methylsulfonyl)amino]-2-phenoxyphenyl}-7-oxo-6,7-dihydro-1H-pyrrolo[2,3-d]pyridazine-2-carboxamide], for which, in series [1], the EC50 amounted to 0.424 µM. Further, the Ki in series [3] worked out at 0.0209 µM; in series [4], 0.0422 µM. Besides, the half-life at 0.5 μM in series [5] worked out at 43 min; in series [6], 3 min.
Turning to `CCS(=O)(=O)c1ccc(OCC2CC2)c(-c2cn(C)c(=O)c3[nH]ncc23)c1` [Example 323, 4-[2-(cyclopropylmethoxy)-5-(ethylsulfonyl)phenyl]-6-methyl-1,6-dihydro-7H-pyrazolo[3,4-c]pyridin-7-one], the EC50 in series [1] was found to be 0.0377 µM. For the same compound, the half-life at 0.5 μM in series [2], in series [5] and in series [6] was over 120 min throughout.
On to `CN(C)Cc1cc2c(-c3cc(S(C)(=O)=O)ccc3Oc3ccc(F)cc3F)cn(C)c(=O)c2[nH]1` [Example 279, 4-[2-(2,4-difluorophenoxy)-5-(methylsulfonyl)phenyl]-2-[(dimethylamino)methyl]-6-methyl-1,6-dihydro-7H-pyrrolo[2,3-c]pyridin-7-one], for which the EC50 in series [1] amounted to 0.364 µM. Besides, the Ki in series [3] is 0.0314 µM; in series [4] it was 0.131 µM. Further, the half-life at 0.5 μM in series [5] was determined as 91 min; in series [6] it was 41 min.
For `CCCS(=O)(=O)Nc1ccc(OC2CCC(F)(F)CC2)c(-c2cn(C)c(=O)c3[nH]ccc23)c1` [Example 102, N-{4-[(4,4-difluorocyclohexyl)oxy]-3-(6-methyl-7-oxo-6,7-dihydro-1H-pyrrolo[2,3-c]pyridin-4-yl)phenyl}propane-1-sulfonamide], in series [1], the EC50 came to 0.0615 µM. The values for the half-life at 0.5 μM in series [2], in series [5] and in series [6] were 36 min, 8 min and 3 min, respectively.
The matching figures for `CNS(=O)(=O)c1cnc(NC2CCCCC2)c(-c2cn(C)c(=O)c3[nH]ccc23)c1` [Example 97, 6-(cyclohexylamino)-N-methyl-5-(6-methyl-7-oxo-6,7-dihydro-1H-pyrrolo[2,3-c]pyridin-4-yl)pyridine-3-sulfonamide]: 0.014 µM, 26 min, 28 min and 9 min.
In the case of `CCNc1ccc(Oc2ccccc2)c(-c2nn(C)c(=O)c3[nH]c(C(=O)OCC)cc23)c1` [Example 75, ethyl 4-[5-(ethylamino)-2-phenoxyphenyl]-6-methyl-7-oxo-6,7-dihydro-1H-pyrrolo[2,3-d]pyridazine-2-carboxylate], the EC50 in series [1] stood at 0.478 µM. Further, the half-life at 0.5 μM turned out to be 9 min in series [2], 4 min in series [5] and 3 min in series [6].
